Ki and pKa data for 4 compounds are collected here from ChEMBL document CHEMBL1146269, “Intermediate analogue inhibitors of mandelate racemase: N-Hydroxyformanilide and cupferron” (Bioorg Med Chem Lett, 2007).

One data set concerns the target T1, Mandelate racemase (Pseudomonas putida, UniProt P11444).
T1 sequence (P11444 whole entry): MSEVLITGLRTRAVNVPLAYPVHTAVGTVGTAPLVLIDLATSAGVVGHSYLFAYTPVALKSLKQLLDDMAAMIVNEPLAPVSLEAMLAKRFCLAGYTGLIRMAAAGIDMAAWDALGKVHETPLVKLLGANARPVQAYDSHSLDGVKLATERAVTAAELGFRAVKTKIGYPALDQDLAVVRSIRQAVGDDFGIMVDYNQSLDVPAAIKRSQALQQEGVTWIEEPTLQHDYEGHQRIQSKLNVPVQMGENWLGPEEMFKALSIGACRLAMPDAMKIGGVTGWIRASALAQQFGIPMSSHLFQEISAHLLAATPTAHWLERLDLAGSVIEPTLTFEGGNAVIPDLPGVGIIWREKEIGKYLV
Kind of data set: Inhibition of mandelate racemase in Pseudomonas putida.

A short description of data set [1]: Dissociation constant, pKa of the compound. The format is physicochemical.

For orientation: Ki means the dissociation constant of the complex between target and ligand, obtained from inhibition or displacement. Low readings indicate higher affinity, high ones lower affinity. Usually pKa stands for the pH at which an ionisable group is half protonated. Read a high pKa as a weaker acid or stronger base. Regarding `O=CN(O)c1ccccc1`, the inhibition constant Ki at Mandelate racemase worked out at 2.79 µM. The pKa in data set [1] is 7.92.

In the case of `O=C1Cc2ccccc2N1O`, the inhibitory constant (Ki) at Mandelate racemase was determined as 510 µM.

Turning to `O=C(NO)c1ccccc1` [BENZOHYDROXAMATE], the Ki at Mandelate racemase was found to be 12 µM.

As for `O=NN(O)c1ccccc1` [CUPFERRON], on Mandelate racemase, affinity was put at a Ki of 2.67 µM.
